Tests used:
hPTHR1 = biological target: T1, hPTHR1 (Homo sapiens, UniProt Q03431); assay: Phospholipase C activity assay ([3H]-inositol phosphate) in COS-7 cells expressing hPTHR1; assay type: cell-based; conditions: COS-7 cells expressing hPTHR1, 40 min; concentration that achieves the EC50 for hPTH(1–34)
T1 construct: similar to that of cells expressing full-length hPTHR1; expressed in transfected cells; host or cells: COS-7 (transient, FuGENE HD)
T1 sequence (Q03431 27-593 E93Y/D94P/K95Y/E96D/A97V/T99D/G100Y/S101A): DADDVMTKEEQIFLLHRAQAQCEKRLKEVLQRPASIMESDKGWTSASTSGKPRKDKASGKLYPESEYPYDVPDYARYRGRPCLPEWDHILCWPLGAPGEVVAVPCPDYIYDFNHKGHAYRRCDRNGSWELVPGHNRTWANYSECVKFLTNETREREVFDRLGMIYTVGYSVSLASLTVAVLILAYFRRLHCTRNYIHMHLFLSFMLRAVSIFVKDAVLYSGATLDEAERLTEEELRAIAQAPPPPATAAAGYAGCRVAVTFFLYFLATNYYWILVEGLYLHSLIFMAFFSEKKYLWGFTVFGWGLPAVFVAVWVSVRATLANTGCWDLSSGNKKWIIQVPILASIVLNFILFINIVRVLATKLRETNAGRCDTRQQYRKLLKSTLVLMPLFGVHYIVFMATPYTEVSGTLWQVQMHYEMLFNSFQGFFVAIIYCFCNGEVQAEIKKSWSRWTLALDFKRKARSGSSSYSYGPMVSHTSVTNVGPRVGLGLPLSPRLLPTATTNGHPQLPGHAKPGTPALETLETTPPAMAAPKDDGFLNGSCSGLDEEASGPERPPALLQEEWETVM
Description: COS-7 cells (ATCC) were seeded into a 96-well flat-bottomed plate (1.4 × 10^4 cells per 100 μl per well) and incubated overnight. The next day, the COS-7 cells were transfected by adding 10 μl of a mixture of hPTHR1 plasmid or empty vector (0.1 μg per well), FuGENE HD Transfection Reagent (0.4 μl per well, Promega), and Opti-MEM I Reduced Serum Medium (10 μl per well, Life Technologies) to each well. On the second day after the cells were seeded into the plate, the culture medium in the wells was discarded, and 100 μl of ^3H-myoinositol/0.1% BSA/DMEM adjusted to 111 kBq ml^−1 (PerkinElmer, Inc.) was added to each well. […] After that, the ^3H radioactivity was measured using a liquid scintillation analyzer. EC50 values were determined from three independent experiments in […] by a non-linear regression Emax model (JMP ver.9.0.2, SAS Institute). […] The geometric means of the EC50 values obtained in three experiments in duplicate were calculated using Microsoft Office Excel 2007.

TPTX rats = assay: Repeated administration study in TPTX rats, study 1; assay type: in vivo, rat
Description: TPTX was carried out in 6-week-old female Crl:CD (SD) rats (Charles River Laboratories). Rats with serum Ca levels of <8.0 mg dl^−1 at 5 days after surgery were used in the following experiments. The rats were divided into four groups both in study 1 and 2, each with a similar mean value of serum Ca levels and body weight. Sample sizes were determined as described in the above single administration study. To evaluate the calcemic effects of PCO371 and hPTHs, we defined a target therapeutic range for serum Ca of 7.6–11.2 mg dl^−1, which corresponds to the low normal to normal range of serum Ca levels.
TPTX rats were treated twice daily (at around 09:00 and 19:00 hours) orally (vehicle or PCO371 at 1, 3 or 9 mg kg^−1) or subcutaneously [hPTH(1–34) or vehicle at 9 nmol kg^−1] for 4 weeks. Four rats were assigned to sham control, and treated with vehicle for PCO371. Vehicles for PCO371 and hPTH(1–34) were the same as in the OVX rat study. Under isoflurane anaesthesia, jugular vein blood was collected immediately before and at 6 and 10 h (for PCO371) or at 1 and 10 h (for hPTH) after administrations to measure the serum Ca levels on days 1 (the first dosing day), 7, 14, 22 and 29. Urine was collected for 24 h by using metabolic cages on days 29–30, and Ca excretion was calculated from urine volume and Ca level. Under isoflurane anaesthesia, jugular vein blood was collected 10 h after administrations to measure serum 1,25(OH)2D3 levels on Day 29 by using a 1,25(OH)2D3 RIA kit (Fujirebio). Four or five TPTX rats were assigned to each dose group. Serum and urine Ca levels were measured in the same way as in the single-dosing study. In another experiment, TPTX rats were treated subcutaneously once daily with hPTH(1–84) at 9 nmol kg^−1, for 4 weeks. Serum Ca was measured immediately before and at 2, 6 and 10 h after administration on day 1 (the first dosing day), 7, 14, 21 and 28 using the same method as described above. Urine was collected for 24 h by using metabolic cages on days 28 and 29, and Ca excretion was calculated from urine volume and Ca level.

Cc1cc(N2C(=O)NC(=O)C2(C)C)cc(C)c1CCS(=O)(=O)N1CCC2(CC1)N=C(c1ccc(OC(F)(F)F)cc1)NC2=O [PCO371, 1-{3,5-dimethyl-4-[2-({4-oxo-2-[4-(trifluoromethoxy)phenyl]-1,3,8-triazaspiro[4.5]dec-1-en-8-yl}sulfonyl)ethyl]phenyl}-5,5-dimethylimidazolidine-2,4-dione]
EC50 (hPTHR1): 17 µM
Serum 1,25(OH)2D3 levels (TPTX rats; 9 mg kg^−1 twice-daily oral, 4 weeks): increased significantly
urinary Ca excretion (TPTX rats; after 4-week treatment, up to 9 mg kg^−1 twice-daily oral): not increased
hypercalcemia (>11.2 mg dl^−1) (TPTX rats; at 0, 6 and 10 h after administrations on days 1, 7, 14, 22 and 29): no hypercalcemia
time serum Ca maintained within the target range after each administration (TPTX rats; twice-daily oral 3 mg kg^−1 or more, 4 weeks): at least 6 h
body weight or general condition vs vehicle-treated rats (TPTX rats; twice-daily oral, 4 weeks): no significant difference
dose that increased serum Ca to within the target therapeutic range (TPTX rats; twice-daily oral, 4 weeks, range 7.6–11.2 mg dl^−1): ≥ 3 mg/kg

Source: publication PMC5120204, “Identification of an orally active small-molecule PTHR1 agonist for the treatment of hypoparathyroidism” (Nature Communications, 2016)
